# Reference: publication PMC8143647, “Proteomics of Galápagos Marine Iguanas Links Function of Femoral Gland Proteins to the Immune System” (Molecular & Cellular Proteomics : MCP, 2020)
# Experiments:
# Bacillus subtilis = assay: Antimicrobial activity, relative growth inhibition in broth microdilution (Gram-pos.); format: cell-based; set-up: key to Activity against Gram-pos.: ++: highly active (comparable to oncocin); +: moderately active; +/-: moderately active without clear dose dependency; -: no activity; details: for Activity against Gram-pos.: Bacillus subtilis in Miller-Hinton broth, inoculum 1-2 x 10^7 cfu/ml, 100 µl + 20 µl test substance, 2n dilution series from 1 mg/ml down to 31 µg/ml, 18-24 h 37 °C, photometer 600 nm, duplicates
# Protocol: (§1) Test strains of Bacillus subtilis, Escherichia coli K12 or Escherichia coli BL21 were grown in Miller-Hinton broth (MHB) for 18–20 h at 37 °C with moderate shaking. An inoculum of 1–2 × 10^7 cfu/ml was prepared in fresh MHB and 100 µl of the suspension was pipetted into microtiter plate wells together with 20 µl test substance. Test substances were measured in duplicates. The plates were covered by a plastic seal to prevent evaporation and incubated for further 18–24 h at 37 °C with moderate shaking. The test substances were dissolved in water at a concentration of 1 mg/ml and a 2n dilution series down to 31 µg/ml was prepared in sterile PBS. After incubation, the bacterial growth was estimated with a Photometer at 600 nm and the relative growth inhibition was calculated compared with a control without test substance. As positive control the well-studied AMP oncocin was used.
# (§2) We were intrigued by these antimicrobial signatures and sought to systematically analyze the proteome of femoral glands. To this end, we utilized the marine iguana protein database of all detected proteins, and generated a library of potential antimicrobial peptides (AMP) by in-silico sliding window digestion. Here, we generated sequence windows of 8 to 15 amino acids and resulting peptides were predicted for antimicrobial activity by a trained support vector machine (as described in the methods) (Fig. 5). […] To experimentally test the antimicrobial properties of these peptides, we determined growth rate reductions of bacterial cultures in the presence of increasing candidate peptide concentration. As positive control, we used the well-established AMP oncocin ([40]). As negative control, we have picked four peptides predicted to have no AMP activity.
# [1] = test system: Escherichia coli K12 or Escherichia coli BL21; assay: Antimicrobial activity, relative growth inhibition in broth microdilution (Gram-neg.); format: cell-based; set-up: key to Activity against Gram-neg.: ++: highly active (comparable to oncocin); +: moderately active; +/-: moderately active without clear dose dependency; -: no activity; antimicrobial activity compared with oncocin: dose or concentration left out as unconfirmed; details: for Activity against Gram-neg.: Escherichia coli in Miller-Hinton broth, inoculum 1-2 x 10^7 cfu/ml, 100 µl + 20 µl test substance, 2n dilution series from 1 mg/ml down to 31 µg/ml, 18-24 h 37 °C, photometer 600 nm, duplicates
# Protocol: as §1, §2
substance,measurement,setting,value
"AGVPRFRFGPPE [Iguana-10, predicted antimicrobial peptide from marine iguana proteome, …]",Activity against Gram-pos.,Bacillus subtilis,+/-
same,Activity against Gram-neg.,[1],++
"GGRRGSI [Iguana-02, predicted antimicrobial peptide from marine iguana proteome, GGRRGSI]",Activity against Gram-pos.,Bacillus subtilis,+/-
same,Activity against Gram-neg.,[1],+/-
"GSFPKEAIVQK [Iguana-07, predicted antimicrobial peptide from marine iguana proteome, …]",Activity against Gram-neg.,[1],+/-
"IADPDQFVLKPQ [Iguana-15, predicted antimicrobial peptide from marine iguana proteome, …]",Activity against Gram-pos.,Bacillus subtilis,+/-
same,Activity against Gram-neg.,[1],+
IFELDGALYR [Iguana-non-04],Activity against Gram-pos.,Bacillus subtilis,-
same,Activity against Gram-neg.,[1],-
"IIPNEDFS [Iguana-05, predicted antimicrobial peptide from marine iguana proteome, IIPNEDFS]",Activity against Gram-neg.,[1],-
"KKLYISKGCMSKSLC [Iguana-04, predicted antimicrobial peptide from marine iguana proteome, …]",dose dependent maximal growth reduction,"Bacillus subtilis; B. subtilis cultures, high concentrations required, vs control without test substance, OD 600 nm",~95%
same,Activity against Gram-pos.,Bacillus subtilis,++
same,antimicrobial activity compared with oncocin,"[1]; E. coli cultures, low concentrations between 3 and 60",exceeded even the oncocin activity
same,dose dependent maximal growth reduction,"[1]; E. coli cultures, vs control without test substance, OD 600 nm",approx. 75%
same,Activity against Gram-neg.,[1],++
"KKPLITMDEIP [Iguana-11, predicted antimicrobial peptide from marine iguana proteome, …]",Activity against Gram-pos.,Bacillus subtilis,++
same,Activity against Gram-neg.,[1],+
LKVPELNV [Iguana-non-02],Activity against Gram-pos.,Bacillus subtilis,-
same,Activity against Gram-neg.,[1],-
"LPTKLDSAFIRKDPFG [Iguana-14, predicted antimicrobial peptide from marine iguana proteome, …]",Activity against Gram-pos.,Bacillus subtilis,+/-
same,Activity against Gram-neg.,[1],+
"LSLSRISIP [Iguana-06, predicted antimicrobial peptide from marine iguana proteome, …]",Activity against Gram-neg.,[1],+/-
"LSRPGVLERFLPDKP [Iguana-16, predicted antimicrobial peptide from marine iguana proteome, …]",Activity against Gram-pos.,Bacillus subtilis,+
same,Activity against Gram-neg.,[1],+
"MPKFHMPKF [Iguana-17, predicted antimicrobial peptide from marine iguana proteome, …]",Activity against Gram-pos.,Bacillus subtilis,++
same,Activity against Gram-neg.,[1],++
NLVSVDERLV [Iguana-non-03],Activity against Gram-pos.,Bacillus subtilis,-
same,Activity against Gram-neg.,[1],-
"RGQYG [Iguana-09, predicted antimicrobial peptide from marine iguana proteome, RGQYG]",Activity against Gram-neg.,[1],+
"RGSIGGGRRGSI [Iguana-03, predicted antimicrobial peptide from marine iguana proteome, …]",Activity against Gram-pos.,Bacillus subtilis,+/-
same,Activity against Gram-neg.,[1],-
"RLTPFVEPRY [Iguana-12, predicted antimicrobial peptide from marine iguana proteome, …]",Activity against Gram-pos.,Bacillus subtilis,+/-
same,Activity against Gram-neg.,[1],+
SALWVVER [Iguana-non-01],Activity against Gram-pos.,Bacillus subtilis,-
same,Activity against Gram-neg.,[1],-
"SYFVKRPPGV [Iguana-13, predicted antimicrobial peptide from marine iguana proteome, …]",Activity against Gram-pos.,Bacillus subtilis,+/-
same,Activity against Gram-neg.,[1],+/-
"VDKPPYLPRPRPPRRIYNR-NH2 [Oncocin, well-studied AMP used as positive control, …-NH2, reference compound]",Activity against Gram-pos.,Bacillus subtilis,++
same,Activity against Gram-neg.,[1],++
"VDPQKV [Iguana-08, predicted antimicrobial peptide from marine iguana proteome, VDPQKV]",Activity against Gram-neg.,[1],+
"YKFYKA [Iguana-01, predicted antimicrobial peptide from marine iguana proteome, YKFYKA]",Activity against Gram-pos.,Bacillus subtilis,+
same,Activity against Gram-neg.,[1],+
